Key:
[1] = The drug is tested on Bacteroides caccae strain: ATCC43185 for biotransformation. The drug concentrations were measured before and after a 12-h incubation by liquid-chromatography-coupled mass spectrometry (LC–MS); conditions: 2 µM
[2] = The drug is tested on Bacteroides cellulosilyticus strain: DSM14838 for biotransformation. The drug concentrations were measured before and after a 12-h incubation by liquid-chromatography-coupled mass spectrometry (LC–MS); conditions: 2 µM
[3] = The drug is tested on Bacteroides fragilis strain: HMW610 for biotransformation. The drug concentrations were measured before and after a 12-h incubation by liquid-chromatography-coupled mass spectrometry (LC–MS); conditions: 2 µM
[4] = The drug is tested on Bacteroides fragilis strain: HMW615 for biotransformation. The drug concentrations were measured before and after a 12-h incubation by liquid-chromatography-coupled mass spectrometry (LC–MS); conditions: 2 µM
[5] = The drug is tested on Bacteroides uniformis strain: ATCC8492 for biotransformation. The drug concentrations were measured before and after a 12-h incubation by liquid-chromatography-coupled mass spectrometry (LC–MS); conditions: 2 µM
[6] = The drug is tested on Bacteroides vulgatus strain: ATCC8482 for biotransformation. The drug concentrations were measured before and after a 12-h incubation by liquid-chromatography-coupled mass spectrometry (LC–MS); conditions: phocaeicola vulgatus, 2 µM
[7] = The drug is tested on Bacteroides xylanisolvens strain: DSM18836 for biotransformation. The drug concentrations were measured before and after a 12-h incubation by liquid-chromatography-coupled mass spectrometry (LC–MS); conditions: 2 µM
[8] = The drug is tested on Odoribacter splanchnicus strain: fecal isolate for biotransformation. The drug concentrations were measured before and after a 12-h incubation by liquid-chromatography-coupled mass spectrometry (LC–MS); conditions: 2 µM
[9] = The drug is tested on Blautia luti strain: DSM14534 for biotransformation. The drug concentrations were measured before and after a 12-h incubation by liquid-chromatography-coupled mass spectrometry (LC–MS); format: ADME; parameters: dose 2 uM, timepoint 0 vs 12 hours; conditions: 2 µM
[10] = The drug is tested on Clostridium asparagiforme strain: DSM15981 for biotransformation. The drug concentrations were measured before and after a 12-h incubation by liquid-chromatography-coupled mass spectrometry (LC–MS); format: ADME; parameters: dose 2 uM, timepoint 0 vs 12 hours; conditions: enterocloster asparagiformis, 2 µM
[11] = The drug is tested on Clostridium symbiosum strain: ATCC14940 for biotransformation. The drug concentrations were measured before and after a 12-h incubation by liquid-chromatography-coupled mass spectrometry (LC–MS); conditions: 2 µM
[12] = The drug is tested on Coprococcus comes strain: ATCC27758 for biotransformation. The drug concentrations were measured before and after a 12-h incubation by liquid-chromatography-coupled mass spectrometry (LC–MS); format: ADME; parameters: dose 2 uM, timepoint 0 vs 12 hours; conditions: 2 µM
[13] = The drug is tested on Dorea formicigenerans strain: ATCC27755 for biotransformation. The drug concentrations were measured before and after a 12-h incubation by liquid-chromatography-coupled mass spectrometry (LC–MS); conditions: 2 µM
[14] = The drug is tested on Subdoligranulum variabile strain: DSM15176 for biotransformation. The drug concentrations were measured before and after a 12-h incubation by liquid-chromatography-coupled mass spectrometry (LC–MS); conditions: 2 µM
[15] = bacteroides fragilis, 12 h, 2 µM
Description: The drug is tested on Bacteroides fragilis strain: DS-208 for biotransformation. The drug concentrations were measured before and after a 12-h incubation by liquid-chromatography-coupled mass spectrometry (LC–MS)

[16] = bacteroides intestinalis, 12 h, 2 µM
Description: The drug is tested on Bacteroides intestinalis strain: DSM17393 for biotransformation. The drug concentrations were measured before and after a 12-h incubation by liquid-chromatography-coupled mass spectrometry (LC–MS)

[17] = segatella copri, 12 h, 2 µM
Description: The drug is tested on Prevotella copri strain: DSM18205 for biotransformation. The drug concentrations were measured before and after a 12-h incubation by liquid-chromatography-coupled mass spectrometry (LC–MS)

[18] = anaerostipes sp., 12 h, 2 µM
Description: The drug is tested on Anaerostipes sp. strain: fecal isolate for biotransformation. The drug concentrations were measured before and after a 12-h incubation by liquid-chromatography-coupled mass spectrometry (LC–MS)

[19] = akkermansia muciniphila, 12 h, 2 µM
Description: The drug is tested on Akkermansia muciniphila strain: ATCC BAA-835 for biotransformation. The drug concentrations were measured before and after a 12-h incubation by liquid-chromatography-coupled mass spectrometry (LC–MS)

[20] = The drug is tested on Enterobacter cancerogenus strain: ATCC35316 for biotransformation. The drug concentrations were measured before and after a 12-h incubation by liquid-chromatography-coupled mass spectrometry (LC–MS); conditions: 2 µM

| SMILES | Bacterial Biotransformation [1] | Bacterial Biotransformation [2] | Bacterial Biotransformation [3] | Bacterial Biotransformation [4] | Bacterial Biotransformation [5] | Bacterial Biotransformation [6] | Bacterial Biotransformation [7] | Bacterial Biotransformation [8] | Bacterial Biotransformation [9] | Bacterial Biotransformation [10] | Bacterial Biotransformation [11] | Bacterial Biotransformation [12] | Bacterial Biotransformation [13] | Bacterial Biotransformation [14] | Bacterial Biotransformation [15] | Bacterial Biotransformation [16] | Bacterial Biotransformation [17] | Bacterial Biotransformation [18] | Bacterial Biotransformation [19] | Bacterial Biotransformation [20] |
| --- | --- | --- | --- | --- | --- | --- | --- | --- | --- | --- | --- | --- | --- | --- | --- | --- | --- | --- | --- | --- |
| CC(=O)O[C@]1(C(C)=O)CC[C@H]2[C@@H]3C=C(Cl)C4=CC(=O)[C@@H]5C[C@@H]5[C@]4(C)[C@H]3CC[C@@]21C [CYPROTERONE ACETATE] | Compound NOT metabolized | Compound metabolized | Compound metabolized | Compound metabolized | Compound metabolized | Compound metabolized | Compound metabolized | Compound metabolized | Compound NOT metabolized | Compound NOT metabolized | Compound NOT metabolized | Compound NOT metabolized | Compound NOT metabolized | Compound NOT metabolized | Compound metabolized | Compound metabolized | Compound NOT metabolized | Compound NOT metabolized | Compound NOT metabolized |  |
| C#C[C@]1(OC(C)=O)CC[C@H]2[C@@H]3CCC4=CC(=O)CC[C@@H]4[C@H]3CC[C@@]21C [NORETHINDRONE ACETATE] | Compound metabolized | Compound metabolized | Compound metabolized | Compound metabolized | Compound metabolized | Compound metabolized | Compound metabolized | Compound metabolized | Compound metabolized | Compound metabolized | Compound metabolized | Compound NOT metabolized | Compound NOT metabolized | Compound NOT metabolized | Compound metabolized | Compound metabolized | Compound metabolized | Compound metabolized | Compound metabolized |  |
| NC(=O)N1c2ccccc2CC(=O)c2ccccc21 [OXCARBAZEPINE] | Compound NOT metabolized | Compound NOT metabolized | Compound NOT metabolized |  | Compound metabolized |  |  | Compound metabolized | Compound metabolized | Compound NOT metabolized | Compound metabolized | Compound NOT metabolized | Compound metabolized | Compound NOT metabolized |  | Compound NOT metabolized | Compound NOT metabolized | Compound NOT metabolized | Compound metabolized | Compound metabolized |
| CN(C)CCOC(C)(c1ccccc1)c1ccccn1.O=C(O)CCC(=O)O (stereo not drawn) [DOXYLAMINE SUCCINATE] | Compound NOT metabolized | Compound NOT metabolized | Compound NOT metabolized | Compound NOT metabolized | Compound NOT metabolized | Compound NOT metabolized | Compound NOT metabolized | Compound NOT metabolized | Compound NOT metabolized | Compound NOT metabolized | Compound NOT metabolized | Compound NOT metabolized | Compound NOT metabolized | Compound NOT metabolized | Compound NOT metabolized | Compound NOT metabolized | Compound NOT metabolized | Compound NOT metabolized | Compound NOT metabolized |  |
| COc1ccccc1OCC(O)COC(N)=O (stereo not drawn) [METHOCARBAMOL] | Compound NOT metabolized | Compound NOT metabolized | Compound NOT metabolized | Compound NOT metabolized | Compound NOT metabolized | Compound NOT metabolized | Compound NOT metabolized | Compound NOT metabolized | Compound NOT metabolized | Compound NOT metabolized | Compound NOT metabolized | Compound NOT metabolized | Compound NOT metabolized | Compound NOT metabolized | Compound NOT metabolized | Compound NOT metabolized | Compound NOT metabolized | Compound NOT metabolized | Compound NOT metabolized |  |
| CCOC(=O)[C@H](CCc1ccccc1)N[C@@H](C)C(=O)N1CCC[C@H]1C(=O)O.O=C(O)/C=C\C(=O)O [ENALAPRIL MALEATE] | Compound NOT metabolized | Compound NOT metabolized |  | Compound NOT metabolized | Compound NOT metabolized | Compound NOT metabolized | Compound metabolized | Compound NOT metabolized | Compound NOT metabolized | Compound NOT metabolized | Compound NOT metabolized | Compound NOT metabolized | Compound NOT metabolized | Compound NOT metabolized | Compound NOT metabolized | Compound NOT metabolized | Compound NOT metabolized | Compound NOT metabolized | Compound NOT metabolized |  |
| Cc1ccccc1C(OCCN(C)C)c1ccccc1.O=C(O)CC(O)(CC(=O)O)C(=O)O (stereo not drawn) [ORPHENADRINE CITRATE] | Compound NOT metabolized | Compound NOT metabolized | Compound NOT metabolized | Compound NOT metabolized | Compound NOT metabolized | Compound NOT metabolized |  | Compound NOT metabolized | Compound NOT metabolized | Compound NOT metabolized | Compound NOT metabolized | Compound NOT metabolized | Compound NOT metabolized | Compound NOT metabolized | Compound NOT metabolized | Compound NOT metabolized | Compound NOT metabolized | Compound NOT metabolized |  |  |
| OCCN1CCN(CCCN2c3ccccc3Sc3ccc(C(F)(F)F)cc32)CC1 [FLUPHENAZINE] | Compound metabolized | Compound metabolized |  | Compound NOT metabolized | Compound metabolized | Compound metabolized | Compound metabolized |  | Compound NOT metabolized | Compound NOT metabolized |  | Compound metabolized | Compound metabolized | Compound NOT metabolized | Compound metabolized | Compound metabolized | Compound metabolized | Compound metabolized | Compound NOT metabolized |  |

Reference: ChEMBL document CHEMBL5303573, “Mapping human microbiome drug metabolism by gut bacteria and their genes” (Nature, 2019)
